# Source: patent US4849441A, “Isoindolin-1-one derivative and antiarrhythmic agent” (Kyowa Hakko Kogyo Co., Ltd., priority 1986, dated 1989)
# Assays:
# [1] = system: chloroform-induced arrhythmia in mice; experiment: Mice chloroform-induced arrhythmia test; type: in vivo, mice of dd strain; conditions: oral administration, effective if < 720 pulses/min, Probit method; for ED50: Mus musculus, po, read-out: Antiarrhythmic Activity A: chloroform induced arrhythmia in mice (ED50)
# Procedure: The antiarrhythmic activity was examined by arrhythmia test induced with chloroform in mice and by arrhythmia test induced by ligation of dog coronary artery. (A) Mice chloroform-induced arrhythmia test: Using mice of dd strain, weighing 18 to 22 g and fasting and abstaining from water for 4 to 5 hours, an antiarrhythmic effect was evaluated in accordance with the method of Block [Life Science, 28, 2623 (1981)]. That is, after orally administrating each compound, the mice were put in a chloroform atmosphere and taken out after respiratory standstill. Electrocardiogram was measured by the standard limb induction method; in the case when frequent pulse exceeding 720 pulses/min. is continued for 30 seconds or longer, it was judged ineffective and in the case of a heart beat number being less than 720 pulses/min., it was judged effective. ED50 was determined by the Probit method.
# dd, male mice [2] = experiment: Acute toxicity test (mortality 7 days after administration); type: in vivo; conditions: mortality at 7 days, minimum lethal dosage
# Procedure: Groups each consisting of three dd, male mice having body weights of 20±1 g were used, and the compound of the present invention was intraperitoneally administered. Mortality 7 days after the administration was observed and the minimum lethal dosage (MLD) was determined.
# [3] = system: coronary artery ligation-induced arrhythmia in dog; experiment: Dog coronary artery ligation-induced arrhythmia test; type: in vivo, dogs; conditions: Canis lupus familiaris, intravenous, 16 h after ligation, effective if 50% or more of total pulses restored to sinus rhythm, dose effective in 50% or more cases, read-out: Antiarrhythmic Activity B: coronary artery ligation induced arrhythmia in dog (MED)
# From the text: The antiarrhythmic activity was examined by arrhythmia test induced with chloroform in mice and by arrhythmia test induced by ligation of dog coronary artery.
# (B) Dog coronary artery ligation-induced arrhythmia test:
# Using dogs weighing 7 to 12 kg, coronary artery ligation-induced arryhthmia occurred in accordance with the Harris method [Circulation, 1, 1318 (1950)]. Namely, the left fifth costa was subjected to thoraco-laparotomy.After the pericardium was incised, the left fore descending branch of the coronary artery was exfoliated around the first side branch and ligated. Sixteen hours after, a test compound was intravenously administered to dogs with multiple ventricular arrhythmic pulses being 90% or more than the total pulses. Then, electrocardiogram was recorded without anesthesia under free movement, and a case where 50% or more of the total pulses was restored to sinus rhythm was judged effective.
# dd, male mice [4] = experiment: Acute toxicity test (mortality 7 days after administration); type: in vivo; conditions: mortality at 7 days, minimum lethal dosage; remark: listed apart in the source
SMILES,ED50 [1],"Acute Toxicity (MLD) i.p. (dd, male mice [2])",minimal effective dose [3],"Acute Toxicity (MLD) p.o. (dd, male mice [4])",Antiarrhythmic Activity A: chloroform induced arrhythmia in mice (ED50) [1]
"CCN(CC)CCCN1C(=O)c2ccccc2C1c1ccccc1N (stereo not drawn) [Compound 3, 3-(2-Aminophenyl)-2-(3-diethylaminopropyl)isoindolin-1-one]",< 100 mg/kg,> 100 mg/kg,2.5 mg/kg,100 mg/kg,–
"CCN(CC)CCN1C(=O)c2ccccc2C1c1cc(C)cc(C)c1N (stereo not drawn) [Compound 26, 3-(2-Amino-3,5-dimethylphenyl)-2-(2-diethylaminoethyl)-isoindolin-1-one]",< 25 mg/kg,100 mg/kg,–,200 mg/kg,–
"CCNCCN1C(=O)c2ccccc2C1c1cc(C#N)ccc1N (stereo not drawn) [Compound 38, 3-(2-Amino-5-cyanophenyl)-2-(2-ethylaminoethyl)-isoindolin-1-one]",50 mg/kg,> 100 mg/kg,5 mg/kg,> 300 mg/kg,–
"CCNc1ccccc1C1c2ccccc2C(=O)N1CCN(CC)CC (stereo not drawn) [Compound 9, 2-(2-Diethylaminoethyl)-3-(2-ethylaminophenyl)isoindolin-1-one]",63 mg/kg,> 100 mg/kg,> 5 mg/kg,200 mg/kg,–
"CC(C)NCCN1C(=O)c2ccccc2C1c1cc(C#N)ccc1N (stereo not drawn) [Compound 36, 3-(2-Amino-5-cyanophenyl)-2-(2-isopropylaminoethyl)-isoindolin-1-one]",50 to 100 mg/kg,> 100 mg/kg,–,> 300 mg/kg,–
"CCN(CC)CCN1C(=O)c2ccccc2C1c1cccc(C(C)C)c1N (stereo not drawn) [Compound 33, 3-(2-Amino-3-isopropylphenyl)-2-(2-diethylaminoethyl)-isoindolin-1-one]",14 mg/kg,50 mg/kg,–,100 mg/kg,–
"CCN(CC)CCN1C(=O)c2ccccc2C1c1ccccc1N(C)C (stereo not drawn) [Compound 8, 2-(2-Diethylaminoethyl)-3-(2-dimethylaminophenyl)isoindolin-1-one]",36 mg/kg,50 mg/kg,2.5 mg/kg,100 mg/kg,–
"CCN(CC)CCN1C(=O)c2ccccc2C1c1cc(Cl)ccc1N (stereo not drawn) [Compound 11, 3-(2-Amino-5-chlorophenyl)-2-(2-diethylaminoethyl)-isoindolin-1-one]",> 100 mg/kg,> 100 mg/kg,5 mg/kg,> 300 mg/kg,–
"CCN(CC)CCN1C(=O)c2ccccc2C1c1ccccc1N (stereo not drawn) [Compound 1, 3-(2-Aminophenyl)-2-(2-diethylaminoethyl)isoindolin-1-one]",33 mg/kg,> 100 mg/kg,1.25 mg/kg,> 300 mg/kg,–
"CCN(CC)CCN1C(=O)c2ccccc2C1c1ccc(N(C)C)cc1 (stereo not drawn) [Compound 18, 2-(2-Diethylaminoethyl)-3-(4-dimethylaminophenyl)-isoindolin-1-one]",23 mg/kg,50 mg/kg,2.5 mg/kg,100 mg/kg,–
"CCN(CC)CCN1C(=O)c2ccccc2C1c1cc(F)ccc1N (stereo not drawn) [Compound 32, 3-(2-Amino-5-fluorophenyl)-2-(2-diethylaminoethyl)-isoindolin-1-one]",25 to 50 mg/kg,> 100 mg/kg,–,300 mg/kg,–
CCN1CCCC1CN1C(=O)c2ccccc2C1c1cc(C#N)ccc1N (stereo not drawn) [Compound 35],50 to 100 mg/kg,> 100 mg/kg,–,> 300 mg/kg,–
"CCN(CC)CCCCN1C(=O)c2ccccc2C1c1ccccc1N (stereo not drawn) [Compound 4, 3-(2-Aminophenyl)-2-(4-diethylaminobutyl)isoindolin-1-one]",47 mg/kg,> 100 mg/kg,1.25 mg/kg,200 mg/kg,–
"CCN(CC)CCN1C(=O)c2ccccc2C1c1ccccc1NC (stereo not drawn) [Compound 7, 2-(2-Diethylaminoethyl)-3-(2-methylaminophenyl)isoindolin-1-one]",14 mg/kg,50 mg/kg,> 2.5 mg/kg,50 mg/kg,–
CN(C)CCCN1C(=O)c2ccccc2C1c1ccccc1N (stereo not drawn) [Compound 2],> 100 mg/kg,> 100 mg/kg,5 mg/kg,> 300 mg/kg,–
"CCN(CC)CCN1C(=O)c2ccccc2C1c1c(C)ccc(C)c1N (stereo not drawn) [Compound 17, 3-(2-Amino-3,6-dimethylphenyl)-2-(2-diethylaminoethyl)-isoindolin-1-one]",< 25 mg/kg,> 100 mg/kg,–,300 mg/kg,–
"CCCCN(CCCC)CCCN1C(=O)c2ccccc2C1c1ccccc1N (stereo not drawn) [Compound 5, 2-(3-dibutylaminopropyl)-3-(2-aminophenyl)isoindolin-1-one]",35 mg/kg,25 mg/kg,1.25 mg/kg,100 mg/kg,–
"CC(C)NCCN1C(=O)c2ccccc2C1c1ccccc1N (stereo not drawn) [Compound 6, 3-(2-Aminophenyl)-2-(2-isopropylaminoethyl)isoindolin-1-one]",36 mg/kg,> 100 mg/kg,2.5 mg/kg,300 mg/kg,–
"CCN(CC)CCN1C(=O)c2ccccc2C1c1cc(C#N)ccc1N (stereo not drawn) [Compound 31, 3-(2-Amino-5-cyanophenyl)-2-(2-diethylaminoethyl)-isoindolin-1-one]",30 mg/kg,–,2.5 mg/kg,–,19 mg/kg
